Reference: US20210345614A1, “APPLICATION OF 7-CARBOXYBENZO[1,2,3]THIADIAZOLE AMIDES AS PLANT STIMULANTS” (ADAM MICKIEWICZ UNIVERSITY FOUNDATION, priority 2015, published 2021)

System: Pyrenophora teres
Assay: Field test on barley, fungal infection by Pyrenophora teres
Type: in vivo, Hordeum vulgare (spring)
Procedure: The test was conducted on a variety of barley Hordeum vulgare (spring). As such, six applications of the active substance solution was made. The study was conducted on fields of about 25 m^2 in quadruplicate for each combination tested. […] (with the addition of commercial adjuvant) followed by treatment with common fungicide (tebukonazole in formulation containing 250 g of active substance to be applied per 1 ha) in reducing infection of fungi Pyrenophora teres in barley (Hordeum vulgare (spring)) was performed. […] Six applications of the active substance BTHWA solution were made. As a control, one application of fungicide was performed at the time as indicated on the product label. The study was conducted on fields of about 25 m^2 in quadruplicate for each combination tested. […] The fungicide was applied in an amount of 33% its recommended dose (83 g/ha). Six applications of the active substance BTHWA solution were made. As a control, one application of fungicide was performed at the time as indicated on the product label. The study was conducted on fields of about 25 m^2 in quadruplicate for each combination tested.

[1] = Example 29: tebukonazole 1x 250 g/ha alone, or BTHWA 20 mg/L (six applications) + tebukonazole 1x 125 g/ha
[2] = Example 30: tebukonazole 1x 250 g/ha alone, or BTHWA 20 mg/L (six applications) + tebukonazole 1x, table prints 125 g/ha, text 83 g/ha

With `CC(C)(C)C(O)(CCc1ccc(Cl)cc1)Cn1cncn1` (racemic) [tebukonazole, (RS)-1-(4-chlorophenyl)-4,4-dimethyl-3-(1H, 1,2,4-triazol-1-ylmethyl)pentan-3-ol] the “% efficacy” value [1] was 90.87%, the “% of infection” value [1] was 6.00% and the “% efficacy” value [2] was 90.87%. The “% of infection” value [2] was 6.00%.
